Reference: PubChem BioAssay AID743319 (Broad Institute, 2014)
Activity calls are given as the source filed them.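 Rule for the calls: active = fitted curve reaches 200% activation at or below the highest valid dose tested for that compound; inconclusive = flat fit between 30 and 70% activation, or unreliable fit; inactive = the rest.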

Target: Endoplasmic reticulum aminopeptidase 2 (Homo sapiens) (UniProt Q6P179)
Assay: enhanced ERAP2 Arg-AMC hydrolysis – biochemical, fluorescence plate reader, cherry-picked samples, selectivity assay for selective ERAP1 modulator project, dose response (AID 743319)
Conditions: recombinant ERAP2, Arg-AMC cleavage fluorescence, 1 h; for activation: at 11 µM (top of the series)

Chain of Endoplasmic reticulum aminopeptidase 2 (Homo sapiens) (Q6P179 whole entry, looked up): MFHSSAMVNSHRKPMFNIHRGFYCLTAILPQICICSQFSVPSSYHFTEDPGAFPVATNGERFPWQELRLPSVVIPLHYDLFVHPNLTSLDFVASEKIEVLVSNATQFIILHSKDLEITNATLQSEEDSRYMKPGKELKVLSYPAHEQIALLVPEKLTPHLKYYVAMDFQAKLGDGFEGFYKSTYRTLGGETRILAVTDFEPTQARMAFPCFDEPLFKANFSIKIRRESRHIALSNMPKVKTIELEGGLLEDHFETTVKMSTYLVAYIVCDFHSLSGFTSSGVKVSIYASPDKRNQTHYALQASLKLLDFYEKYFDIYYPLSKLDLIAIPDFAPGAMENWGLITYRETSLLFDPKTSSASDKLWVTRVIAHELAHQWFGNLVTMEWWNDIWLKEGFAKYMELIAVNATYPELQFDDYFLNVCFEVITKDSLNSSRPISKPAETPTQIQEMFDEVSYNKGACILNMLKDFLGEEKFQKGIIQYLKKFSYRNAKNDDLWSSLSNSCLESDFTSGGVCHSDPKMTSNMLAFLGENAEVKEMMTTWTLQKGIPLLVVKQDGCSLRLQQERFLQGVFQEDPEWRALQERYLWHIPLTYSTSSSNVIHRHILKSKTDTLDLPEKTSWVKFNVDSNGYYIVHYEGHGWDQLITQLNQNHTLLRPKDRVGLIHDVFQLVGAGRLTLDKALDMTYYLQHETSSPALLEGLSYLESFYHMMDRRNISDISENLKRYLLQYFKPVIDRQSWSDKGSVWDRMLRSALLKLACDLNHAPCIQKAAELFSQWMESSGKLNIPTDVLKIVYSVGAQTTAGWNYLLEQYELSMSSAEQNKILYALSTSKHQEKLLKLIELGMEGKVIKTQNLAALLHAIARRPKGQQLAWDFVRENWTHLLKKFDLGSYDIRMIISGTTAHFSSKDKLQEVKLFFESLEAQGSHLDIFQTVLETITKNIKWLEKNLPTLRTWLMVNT

O=C(C[C@@H]1CC[C@@H]2[C@H](COC[C@H](O)CN2C(=O)Nc2cccc(Cl)c2)O1)N1CCCCC1
activation: 2.69% (inactive)

N#Cc1c(N2CCNCC2)nc(-c2ccco2)c2c1CCCC2
activation: 31.3% (inactive)

CC(=O)N1CCN(C(=O)C2(NC(=O)Nc3ccc(C)cc3)CCCCC2)CC1
activation: 2.05% (inactive)

CCCN1[C@@H]2Cn3c(ccc(/C=C/c4ccccc4)c3=O)[C@H]1[C@@H](C(=O)NCc1ccccn1)[C@@H]2CO
AC200: 2260 nM

COCC(=O)N1[C@@H]2Cn3c(ccc(/C=C/c4ccccc4)c3=O)[C@H]1[C@@H](C(=O)N1CCOCC1)[C@@H]2CO
AC200: 1550 nM
